Experiments:
[1] = Half life in pH 7.3 PBS incubated at 37 degC by RP-18-HPLC method; assay type: physicochemical
[2] = Half life in human CEM/0 cell extracts incubated at 37 degC by RP-18-HPLC method; assay type: ADME, CCRF-CEM
[3] = test system: Human immunodeficiency virus 1; assay: Antiviral activity against HIV1 3B infected in human CEM/0 cells assessed as reduction in virus-induced giant cell formation incubated for 4 to 5 days; assay type: functional, organism-based; details: Human immunodeficiency virus 1, 3B, CCRF-CEM
[4] = test system: Human immunodeficiency virus 2; assay: Antiviral activity against HIV2 ROD infected in human CEM/0 cells assessed as reduction in virus-induced giant cell formation incubated for 4 to 5 days; assay type: functional, organism-based; details: Human immunodeficiency virus 2, ISOLATE ROD, CCRF-CEM
[5] = test system: Human immunodeficiency virus 2; assay: Antiviral activity against HIV2 ROD infected in human thymidine kinase deficient CEM/TK- cells assessed as reduction in virus-induced giant cell formation incubated for 4 to 5 days; assay type: functional, organism-based; details: Human immunodeficiency virus 2, ISOLATE ROD
[6] = Cytotoxicity against human CEM/0 cells assessed as reduction in cell proliferation incubated for 4 to 5 days
[7] = Half life in pH 7.3 RPMI medium incubated at 37 degC by RP-18-HPLC method; assay type: physicochemical
[8] = Half life in presence of pig liver esterase assessed as half life for DiPPro-NDP by RP-18-HPLC method; assay type: ADME
[9] = Drug metabolism in human CEM/0 cell extracts assessed as increase in NDP/NMP ratio after 10 hrs by HILIC-HPLC method; assay type: ADME; details: ccrf-cem
[10] = Half life in presence of pig liver esterase assessed as half life for hydrolysis R1 intermediate by RP-18-HPLC method; assay type: ADME; details: isolated protein
[11] = Drug metabolism in human CEM/0 cell extracts assessed as increase in NDP/NMP ratio by HILIC-HPLC method; assay type: ADME, cell-based; details: ccrf-cem

Row | SMILES | half-life [1] [h] | half-life [2] [h] | EC50 [3] [nM] | EC50 [4] [nM] | EC50 [5] [nM] | CC50 ([6]; CEM/0 cells) [nM] | half-life [7] [h] | half-life [8] [s] | Drug metabolism [9] | CC50 ([6]; ccrf-cem) [nM] | t1/2 [10] [h] | Drug metabolism [11]
1 | CCCCCCCCCCCC(=O)Oc1ccc(COP(=O)(OCc2ccc(OC(C)=O)cc2)OP(=O)(O)OC[C@@H]2C=C[C@H](n3cc(C)c(=O)[nH]c3=O)O2)cc1.N (some centres undefined) | 48 | 0.16 | 290 | 280 | 1770 | 26000 | – | – | – | – | – | –
2 | CCCCC(=O)Oc1ccc(COP(=O)(OCc2ccc(OC(=O)c3ccc(C(F)(F)F)cc3)cc2)OP(=O)(O)OC[C@@H]2C=C[C@H](n3cc(C)c(=O)[nH]c3=O)O2)cc1.N (some centres undefined) | 15 | 0.88 | 400 | 720 | > 10000 | 37000 | – | – | – | – | – | –
3 | CCCCCCCC(=O)Oc1ccc(COP(=O)(OCc2ccc(OC(=O)CCCC)cc2)OP(=O)(O)OC[C@@H]2C=C[C@H](n3cc(C)c(=O)[nH]c3=O)O2)cc1.N (some centres undefined) | 36 | 0.71 | 330 | 1470 | 6310 | 66000 | – | – | – | – | – | –
4 | CC(=O)Oc1ccc(COP(=O)(OCc2ccc(OC(=O)c3ccc(C(F)(F)F)cc3)cc2)OP(=O)(O)OC[C@@H]2C=C[C@H](n3cc(C)c(=O)[nH]c3=O)O2)cc1.N (some centres undefined) | 15 | 0.03 | 720 | 1380 | > 10000 | 51000 | – | – | – | – | – | –
5 | CCCCCCCCCC(=O)Oc1ccc(COP(=O)(O)OP(=O)(O)OC[C@@H]2C=C[C@H](n3cc(C)c(=O)[nH]c3=O)O2)cc1 | – | 0.833 | – | – | – | – | – | – | – | – | – | –
6 | Cc1cn([C@H]2C[C@H](N=[N+]=[N-])[C@@H](CO)O2)c(=O)[nH]c1=O [ZIDOVUDINE] | – | – | 44 | 490 | > 250000 | > 250000 | – | – | – | – | – | –
7 | CCCCCCCCCCCC(=O)Oc1ccc(COP(=O)(OCc2ccc(OC(=O)CCCC)cc2)OP(=O)(O)OC[C@@H]2C=C[C@H](n3cc(C)c(=O)[nH]c3=O)O2)cc1.N (some centres undefined) | 52 | 1.91 | 100 | 280 | 130 | 30000 | – | – | – | – | – | –
8 | CCCCCCCCCC(=O)Oc1ccc(COP(=O)(OCc2ccc(OC(C)=O)cc2)OP(=O)(O)OC[C@H]2O[C@@H](n3cc(C)c(=O)[nH]c3=O)C[C@@H]2N=[N+]=[N-])cc1.N (some centres undefined) | 35 | 0.04 | 16 | 140 | > 10000 | 20000 | 19 | 27 | metabolite_detected | – | – | –
9 | Cc1cn([C@H]2C=C[C@@H](CO)O2)c(=O)[nH]c1=O [STAVUDINE] | – | – | 520 | 2230 | 150000 | – | – | – | – | 79000 | – | –
10 | CCCCCCCCCC(=O)Oc1ccc(COP(=O)(OCc2ccc(OC(=O)CCCC)cc2)OP(=O)(O)OC[C@@H]2C=C[C@H](n3cc(C)c(=O)[nH]c3=O)O2)cc1.N (some centres undefined) | 40 | 1.05 | 360 | 1170 | 830 | 20000 | – | 15.6 | – | – | – | –
11 | CCCCCCCCCCCC(=O)Oc1ccc(COP(=O)(O)OP(=O)(O)OC[C@H]2O[C@@H](n3cc(C)c(=O)[nH]c3=O)C[C@@H]2N=[N+]=[N-])cc1 | – | 1.05 | – | – | – | – | – | – | – | – | – | –
12 | CCCCC(=O)Oc1ccc(COP(=O)(OCc2ccc(OC(=O)c3ccc(C)cc3)cc2)OP(=O)(O)OC[C@@H]2C=C[C@H](n3cc(C)c(=O)[nH]c3=O)O2)cc1.N (some centres undefined) | 50 | 0.96 | 300 | 1450 | 10000 | 14000 | – | – | – | – | – | –
13 | Cc1ccc(C(=O)Oc2ccc(COP(=O)(O)OP(=O)(O)OC[C@@H]3C=C[C@H](n4cc(C)c(=O)[nH]c4=O)O3)cc2)cc1 | – | 14.5 | – | – | – | – | – | – | – | – | – | –
14 | CCCCCCCC(=O)Oc1ccc(COP(=O)(O)OP(=O)(O)OC[C@H]2O[C@@H](n3cc(C)c(=O)[nH]c3=O)C[C@@H]2N=[N+]=[N-])cc1 | – | 1.65 | – | – | – | – | – | – | – | – | – | –
15 | CCCCCCCCCCCC(=O)Oc1ccc(COP(=O)(OCc2ccc(OC(C)=O)cc2)OP(=O)(O)OC[C@H]2O[C@@H](n3cc(C)c(=O)[nH]c3=O)C[C@@H]2N=[N+]=[N-])cc1.N (some centres undefined) | 32 | 0.11 | 42 | 80 | 10000 | 18000 | – | 11.4 | – | – | 0.467 | –
16 | CC(=O)Oc1ccc(COP(=O)(OCc2ccc(OC(=O)c3ccc(C(F)(F)F)cc3)cc2)OP(=O)(O)OC[C@H]2O[C@@H](n3cc(C)c(=O)[nH]c3=O)C[C@@H]2N=[N+]=[N-])cc1.N (some centres undefined) | 13 | 0.04 | 12 | 60 | > 10000 | 100000 | – | – | – | – | – | –

Row | SMILES | half-life [1] [h] | half-life [2] [h] | EC50 [3] [nM] | EC50 [4] [nM] | EC50 [5] [nM] | CC50 ([6]; CEM/0 cells) [nM] | half-life [7] [h] | half-life [8] [s] | Drug metabolism [9] | CC50 ([6]; ccrf-cem) [nM] | t1/2 [10] [h] | Drug metabolism [11]
17 | CC(=O)Oc1ccc(COP(=O)(OCc2ccc(OC(=O)c3ccc(C)cc3)cc2)OP(=O)(O)OC[C@@H]2C=C[C@H](n3cc(C)c(=O)[nH]c3=O)O2)cc1.N (some centres undefined) | 58 | 0.04 | 290 | 1470 | 10000 | 11000 | – | – | – | – | – | –
18 | CCCCCCCCCCCC(=O)Oc1ccc(COP(=O)(OCc2ccc(OC(=O)CCCC)cc2)OP(=O)(O)OC[C@H]2O[C@@H](n3cc(C)c(=O)[nH]c3=O)C[C@@H]2N=[N+]=[N-])cc1.N (some centres undefined) | 63 | 1.65 | 13 | 60 | 8160 | 36000 | – | 72 | – | – | 0.633 | –
19 | Cc1cn([C@H]2C=C[C@@H](COP(=O)(O)OP(=O)(O)OCc3ccc(OC(=O)c4ccc(C(F)(F)F)cc4)cc3)O2)c(=O)[nH]c1=O | – | 11.5 | – | – | – | – | – | – | – | – | – | –
20 | CCCCCCCC(=O)Oc1ccc(COP(=O)(O)OP(=O)(O)OC[C@@H]2C=C[C@H](n3cc(C)c(=O)[nH]c3=O)O2)cc1 | – | 1.65 | – | – | – | – | – | – | – | – | – | –
21 | CCCCCCCC(=O)Oc1ccc(COP(=O)(OCc2ccc(OC(=O)CCCC)cc2)OP(=O)(O)OC[C@H]2O[C@@H](n3cc(C)c(=O)[nH]c3=O)C[C@@H]2N=[N+]=[N-])cc1.N (some centres undefined) | 46 | 0.83 | 36 | 70 | > 10000 | 73000 | – | 16.2 | – | – | 0.25 | –
22 | CCCCCCC(=O)Oc1ccc(COP(=O)(OCc2ccc(OC(=O)CCCCCC)cc2)OP(=O)(O)OC[C@H]2O[C@@H](n3cc(C)c(=O)[nH]c3=O)C[C@@H]2N=[N+]=[N-])cc1.N | – | – | 16 | 58 | > 10000 | 47000 | – | – | – | – | – | metabolite_detected
23 | CCCCCCCCCC(=O)Oc1ccc(COP(=O)(OCc2ccc(OC(=O)CCCCCCCCC)cc2)OP(=O)(O)OC[C@H]2O[C@@H](n3cc(C)c(=O)[nH]c3=O)C[C@@H]2N=[N+]=[N-])cc1 | – | – | 26 | 230 | 1300 | 38000 | – | – | – | – | – | –
24 | CCCCCCCCCC(=O)Oc1ccc(COP(=O)(O)OP(=O)(O)OC[C@H]2O[C@@H](n3cc(C)c(=O)[nH]c3=O)C[C@@H]2N=[N+]=[N-])cc1 | – | 0.833 | – | – | – | – | – | – | – | – | – | –
25 | CCCCCCCCCC(=O)Oc1ccc(COP(=O)(OCc2ccc(OC(C)=O)cc2)OP(=O)(O)OC[C@@H]2C=C[C@H](n3cc(C)c(=O)[nH]c3=O)O2)cc1.N (some centres undefined) | 40 | 0.04 | 330 | 1360 | 2320 | 15000 | – | 8.4 | – | – | – | –
26 | CCCCCCCC(=O)Oc1ccc(COP(=O)(OCc2ccc(OC(C)=O)cc2)OP(=O)(O)OC[C@H]2O[C@@H](n3cc(C)c(=O)[nH]c3=O)C[C@@H]2N=[N+]=[N-])cc1.N (some centres undefined) | 33 | 0.02 | 42 | 160 | > 10000 | 29000 | – | 12.6 | – | – | – | –
27 | CCCCCCCCCC(=O)Oc1ccc(COP(=O)(OCc2ccc(OC(=O)CCCC)cc2)OP(=O)(O)OC[C@H]2O[C@@H](n3cc(C)c(=O)[nH]c3=O)C[C@@H]2N=[N+]=[N-])cc1.N (some centres undefined) | 50 | 1 | 34 | 290 | 10000 | 41000 | 77 | 16.2 | – | – | 0.317 | –
28 | Cc1cn([C@H]2C[C@H](N=[N+]=[N-])[C@@H](COP(=O)(O)OP(=O)(O)OCc3ccc(OC(=O)c4ccc(C(F)(F)F)cc4)cc3)O2)c(=O)[nH]c1=O | – | 3.83 | – | – | – | – | – | – | – | – | – | –
29 | CCCCCCCC(=O)Oc1ccc(COP(=O)(OCc2ccc(OC(C)=O)cc2)OP(=O)(O)OC[C@@H]2C=C[C@H](n3cc(C)c(=O)[nH]c3=O)O2)cc1.N (some centres undefined) | 36 | 0.04 | 330 | 1050 | 6310 | 33000 | – | – | – | – | – | –
30 | CCCCCCCCCCCC(=O)Oc1ccc(COP(=O)(O)OP(=O)(O)OC[C@@H]2C=C[C@H](n3cc(C)c(=O)[nH]c3=O)O2)cc1 | – | 1.15 | – | – | – | – | – | – | – | – | – | –
31 | CCCCC(=O)Oc1ccc(COP(=O)(OCc2ccc(OC(=O)CCCC)cc2)OP(=O)(O)OC[C@H]2O[C@@H](n3cc(C)c(=O)[nH]c3=O)C[C@@H]2N=[N+]=[N-])cc1.N | – | – | 11 | 54 | > 10000 | 60000 | – | – | – | – | – | metabolite_detected
32 | CCCCC(=O)Oc1ccc(COP(=O)(OCc2ccc(OC(=O)c3ccc(C(F)(F)F)cc3)cc2)OP(=O)(O)OC[C@H]2O[C@@H](n3cc(C)c(=O)[nH]c3=O)C[C@@H]2N=[N+]=[N-])cc1.N (some centres undefined) | 19 | 0.83 | 36 | 60 | > 10000 | 58000 | – | – | – | – | – | –

From ChEMBL document CHEMBL3596094, “Nucleoside Diphosphate Prodrugs: Nonsymmetric DiPPro-Nucleotides” (J Med Chem, 2015)
